The conditions of series [1]: cited from earlier work.
Series [2] is classed as physicochemical. As to the method:
Examples illustrating the dissolution and aqueous reconstitution of terephthalic acid from ionic liquids follow the same general experimental protocol. However, it should be noted that the ionic liquids chosen are by far non-limiting examples of terephthalic acid dissolution in ionic liquids. To a vial containing 100 mg of an ionic liquid is added 10 mg of terephthalic acid and the mixture is heated to 75° C. to reduce the viscosity of the resulting liquid. The solution is stirred on a hot plate in an oil bath for 24 hours, whereupon the solutions are visually checked for dissolution. Aqueous reconstitution of the terephthalic acid is achieved by the addition of 500 mL deionized water (polished to 18.1-18.3 MΩ cm). Crystalline terephthalic acid separates from the ionic liquid as a flock, washed with copious amounts of deionized water and vacuum filtered, then dried in ambient conditions and ground with a spatula to give the desired crystalline terephthalic acid.

Where two headings read alike, the source gives them in different places.

In the case of `O=Cc1ccc(C(=O)O)cc1` [4-Carboxybenzaldehyde, 4-carboxybenzaldehyde], the solubility in water entry in series [1] (no temperature given) is given as “soluble”.
Take `O=C(O)c1ccc(C(=O)O)cc1` [terephthalic acid]: the “solubility of terephthalic acid in water” value in series [1] (temperature of about 300° C.) is reported as “about 40%”. The solubility in water entry in series [1] (temperatures below about 200° C.) is given as “insoluble”. Further, the “solubility in various ionic liquids” value in series [2] is “soluble”.
